Reference: patent EP2792360A1, “(1aR,12bS)-8-cyclohexyl-11-fluoro-N-((1-methylcyclopropyl)sulfonyl)-1a-((3-methyl-3,8-diazabicyclo[3.2.1]oct-8-yl)carbonyl)-1,1a,2,2b-tetrahydrocyclopropa[d]indolo[2,1-a][2]benzazepine-5-carboxamide for use in treating HCV” (IP Gesellschaft für Management mbH, priority 2013, dated 2014)
Entries after “also recorded” stand apart in the source; their conditions may differ. Where a name gives a salt, the structure may show the parent alone. Read-outs that look alike come from different tables or passages of the source.

Columns and labels:
[1] = VT-XRPD / VH-XRPD / drying stability of HCl salt forms of Formula V; conditions: for stability of the salt form on drying under vacuum at room temperature: ca. 16 hours, XRPD
Procedure: The humidity was controlled by mixing streams of dry and wet nitrogen, with a total flow rate of 200 mL.min-1 The relative humidity was measured by a calibrated Rotronic probe (dynamic range of 1.0 - 100%RH), located near the sample. The weight change (mass relaxation) of the sample as a function of %RH was constantly monitored by the microbalance (accuracy ±0.005 mg). Approximately 5 - 20 mg of sample was placed in a tared mesh stainless steel basket under ambient conditions. […] A moisture sorption isotherm was performed as outlined below (2 scans giving 1 complete cycle). […] Data analysis was undertaken in Microsoft Excel using DVS Analysis Suite v6.0.0.7. […] XRPD: X-Ray Powder Diffraction patterns were collected either on a Bruker AXS C2 GADDS diffractometer or a Bruker AXS D8 diffractometer. […] The beam divergence, i.e. the effective size of the X-ray beam on the sample, was approximately 4 mm. […] In a typical experiment, the sampleis exposed to the X-ray beam for 120 seconds. The software used for data collectionwas GADDS for WNT 4.1.16 and the data were analyzed and presented using Diffrac PlusEVA vl 1.0.0.2 or vl3.0.0.2. Ambient conditions: Samples run under ambient conditions were prepared as flat plate specimens using powder as received without grinding. Approximately 1 - 2 mg of the sample was lightly pressed on aglass slide to obtain a flat surface. Non-ambient conditions: Samples run under non-ambient conditions were mounted on a silicon wafer with heat-conducting compound. The sample was then heated to the appropriate temperatureat 10.C.min_1and subsequently held isothermally for 1 minute before data collection was initiated. On a Bruker D8 diffractometer, the following parameters were used: Cu Ka radiation (40 kV, 40 mA), θ - 20 goniometer, and divergence of V4 and receiving slits, a Ge monochromator and a Lynxeye detector. […] The software used for data collection was Diffrac Plus XRD Commander v2.5.0 and the data were analyzed and presented using Diffrac Plus EVA vl 1.0.0.2 or vl3.0.0.2. Samples were run under ambient conditions as flat plate specimens using powder as received. The sample was gently packed into a cavity cut into polished, zero-background (510) silicon wafer. The sample was rotated in its own plane during analysis. The details of the data collection are: · Angular range: 2 to 42°2Θ, · Step size: 0.05°2Θ, · Collection time: 0.5 s/step.

[2] = Relative stability (non-competitive and competitive interconversion) experiments of crystal forms of Compound 1; conditions: pXRD, DSC, 1H-NMR
Procedure: For the non-competitive experiments, only a single starting crystal form was used to study the potential conversion to another more stabb form. […] The slurry was cooled to 25-30 °C, filtered, suction dried for 1 hour and dried in a vacuum oven at 70 °C and 8 kPa absolute pressure for 12 hours. […] The slurry was cooled to 25-30 °C, filtered, suction dried for 1 hour and dried in a vacuum oven at 70 °C and 8 kPa absolute pressure for 12 hours. […] The slurry was cooled to 25-30 °C, filtered, suction dried for 1 hour and dried in a vacuum oven at 70 °C and 8 kPa absolute pressure for 12 hours.

[3] = Solid form stability of forms of compound of formula (IV) (Temperature / Humidity Controlled XRPD, storage, suspension); type: physicochemical
Procedure: The term"XRPD" denotes the analytical method of X-Ray Powder Diffraction. XRPD patterns were recorded at ambient conditions in transmission geometry with a STOE STADI P diffractometer (Cu K alpha radiation source, primary monochromator, position sensitive detector, angular range 3° to 42° 2Theta, approximately 60 minutes total measurement time). The repeatability of the angular values is in the range of 2Theta ±0.2°. The term "approximately" given in combination with an angular value denotes the repeatability which is in the range of 2Theta ±0.2°. The samples were prepared and analyzed without further processing (e.g. grinding or sieving) of the substance. The relative XRPD peak intensity is dependent upon many factors such as structure factor, temperature factor, crystallinity, polarization factor, multiplicity, and Lorentz factor. Relative intensities may vary considerably from one measurement to another due to preferred orientation effects. Humidity Controlled XRPD analyses were performed in reflection geometry with a Siemens D5000 Diffractometer (Cu radiation source, Ni K beta filter, Scintillation detector, angular range 3° to 42° 2Theta, approximately 180 minutes total measurement time per humidity level). The diffractometer is equipped with an MRI (Materials Research Instruments) humidity chamber. The humidity within the chamber is adjusted with an ANSYCO humidity controller (SYCOS H-HOT). For single crystal structure analysis a single crystal sample was mounted in a nylon loop on a goniometer and measured at ambient conditions. Alternatively, the crystal was cooled in a nitrogen stream during measurement. Data were collected on a GEMINI R Ultra diffractometer from Oxford Diffraction. Cu-radiation of 1.54 A wavelength was used for data collection. Data was processed with the Oxford Diffraction CRYSALIS software. The crystal structure was solved and refined with standard crystallographic software. In this case the program ShelXTL from Bruker AXS (Karlsruhe) was used. The abbreviation "FWHM" denotes the full width at half maximum, which is a width of a peak (e.g. appearing in a spectrum, particularly in an XRPD pattern) at its half height. The term "sharp Bragg diffraction peak" in connection with X-ray diffraction patterns denotes a peak which is observed if Bragg' s law of diffraction is fulfilled. Generally, the FWHM of a sharp Bragg diffraction peak is less than 0.5° 2-theta. The term "amorphous halo" in connection with X-ray diffraction patterns denotes an approximately bell- shaped diffraction maximum in the X-ray powder diffraction pattern of an amorphous material. The FWHM of an amorphous halo is on principle larger than the FWHM of the peak of crystalline material. The terms "FTIR" and "IR" denote the analytical method of infrared spectroscopy. The IR-spectra of the samples are recorded as film of a Nujol suspension consisting of approx. 5 mg of sample and approx. 5 mg of Nujol (mineral oil) between two sodium chloride plates (cross section 13 mm) in transmittance with a FTIR- spectrometer. The spectra were recorded in spectral range between 4000 cm"1 and 600 cm"1, resolution 2 cm"1, and 300 coadded scans on a Magna 860 (thermo/Nicolet) equipped with a DTGS detector. The term "Raman" denotes the analytical method of Raman spectroscopy. For recording Raman spectra, the samples were spread on a glass slide. Raman spectra were recorded in the range of 150-3800 cm"1 with an ARAMIS (HoribaJobinYvon) Raman microscope equipped with a Peltier cooled CCD detector, at excitation of 633 nm, a 1200 1/mm grating, a x50 objective and with 3 exposures of 3s, or 7s for weak Raman scatterers. The term "DSC" denotes the analytical method of Differential Scanning Calorimetry. DSC thermograms were recorded using a Mettler-Toledo™ differential scanning calorimeter DSC820, DSC821 or DSC1 with a FRS05 sensor. […]

[4] = Salt form assessment of the tosylate salt (chemical stability, disassociation, aqueous solubility); type: physicochemical
[5] = Polymorphism assessment of HCl Pattern 2 (heat/cool cycles in solvents, XRPD); type: physicochemical
Source text: . […] Table 18. Results from the polymorph assessment

[6] = Gravimetric vapour sorption (GVS) of salts of Formula V; type: physicochemical
[7] = Characterization of scale-up HCl Pattern 2 (Tables 16-17); type: physicochemical; conditions: for TGA heat / cool experiments: IC / TGA heat / cool experiments: XRPD: cooled and re-analysed; for solubility thermodynamic: thermodynamic from solid
[8] = non-competitive, refluxed in deionized water at about 95 °C for 3 hours, TGA

Nc1nc2cc(-c3ccc4ncc(C(=O)N5CCOCC5)n4c3)ccc2o1 [HCl Pattern 1, (6-(2-aminobenzo[d]oxazol-5-yl)imidazo[1,2-a]pyridin-3-yl)(morpholino)methanone]
stability of the salt form on drying under vacuum at room temperature [1]: partially reverted to the free base

COc1ccc(Cl)c(S(=O)(=O)NC(=O)c2cn3cc(C(F)(F)F)cc(Cl)c3n2)c1 [mixed Forms A and B, 8-chloro-N-[(2-chloro-5-methoxyphenyl)sulfonyl]-6-(trifluoromethyl)-imidazo[1,2-a]pyridine-2-carboxamide]
crystal form of the resulting material ([2]; slurry in deionized water stirred at 25 °C for about 168 hours): Form A

Nc1nc2cc(-c3ccc4ncc(C(=O)N5CCOCC5)n4c3)ccc2o1 [HCl Pattern 3, (6-(2-aminobenzo[d]oxazol-5-yl)imidazo[1,2-a]pyridin-3-yl)(morpholino)methanone]
stability of the salt form on drying under vacuum at room temperature [1]: unstable salt form

COc1ccc(Cl)c(S(=O)(=O)NC(=O)c2cn3cc(C(F)(F)F)cc(Cl)c3n2)c1 [Form B ({drug1b}), 8-chloro-N-[(2-chloro-5-methoxyphenyl)sulfonyl]-6-(trifluoromethyl)-imidazo[1,2-a]pyridine-2-carboxamide]
crystal form of the resulting material [2, 8]: Form A

Cc1onc(-c2ccc(F)cc2)c1COc1ccc(C(=O)N2CCS(=O)(=O)CC2)cn1 [Form E ({drug4e}), (1,1-dioxo-1lambda6-thiomorpholin-4-yl)-{6-[3-(4-fluoro-phenyl)-5-methyl-isoxazol-4-ylmethoxy]-pyridin-3-yl]-methanone]
humidity at which rapid reconversion into Form B is observed [3]: > 5 rH
thermodynamic stability of the solid form [3]: only limited stability at ambient conditions

COc1ccc(Cl)c(S(=O)(=O)NC(=O)c2cn3cc(C(F)(F)F)cc(Cl)c3n2)c1 [Form TS ({drug1e}), 8-chloro-N-[(2-chloro-5-methoxyphenyl)sulfonyl]-6-(trifluoromethyl)-imidazo[1,2-a]pyridine-2-carboxamide]
crystal form of the resulting material [2, 8]: Form A

Cc1ccc(S(=O)(=O)O)cc1.Nc1[nH]ncc1-c1cc(Cl)ccc1Oc1cc(F)c(S(=O)(=O)Nc2cscn2)cc1Cl [tosylate salt, 4-[2-(5-amino-1 H-pyrazol-4-yl)-4-chlorophenoxy]-5-chloro-2-fluoro-N-(1,3-thiazol-4-yl)benzenesulfonamide tosylate]
aqueous solubility [4]: good aqueous solubility
stability with regard to disassociation ([4]; compared with other salts): greater stability
chemical stability ([4]; in particular with regard to formulation and storage): improved chemical stability over the free base

COc1ccc(Cl)c(S(=O)(=O)NC(=O)c2cn3cc(C(F)(F)F)cc(Cl)c3n2)c1 [Form D ({drug1d}), 8-chloro-N-[(2-chloro-5-methoxyphenyl)sulfonyl]-6-(trifluoromethyl)-imidazo[1,2-a]pyridine-2-carboxamide]
crystal form of the resulting material [2, 8]: Form A

Nc1nc2cc(-c3ccc4ncc(C(=O)N5CCOCC5)n4c3)ccc2o1 [HCl Pattern 2, (6-(2-aminobenzo[d]oxazol-5-yl)imidazo[1,2-a]pyridin-3-yl)(morpholino)methanone]
XRPD Result ([5]; Solvent DCM (entry -11)): HCl Pattern 2
XRPD Result ([5]; Solvent EtOAc (entry -08)): HCl Pattern 2
XRPD Result ([5]; Solvent EtOH (entry -02)): HCl Pattern 2
XRPD Result ([5]; Solvent IPA (10% water) (entry -06)): HCl Pattern 2
XRPD Result ([5]; Solvent IPA (entry -03)): HCl Pattern 2
XRPD Result ([5]; Solvent MEK (entry -09)): HCl Pattern 2
XRPD Result ([5]; Solvent MeCN (entry -05)): HCl Pattern 2
XRPD Result ([5]; Solvent MeOH (entry -01)): HCl Pattern 2
XRPD Result ([5]; Solvent Nitromethane (entry -12)): HCl Pattern 2
XRPD Result ([5]; Solvent TBME (entry -10)): HCl Pattern 2
XRPD Result ([5]; Solvent THF (5% water) (entry -07)): HCl Pattern 2
XRPD Result ([5]; Solvent THF (entry -04)): HCl Pattern 2
form by XRPD after polymorph assessment ([5]; freeze-dried material, 20 vols solvent, heat/cool cycles RT to 50°C for three days): known form HCl Pattern 2
VH-XRPD ([1]; between 45 and 80%RH): No change was noted between 45 and 80%RH
relative humidity to which the form is stable (VH-XRPD) ([1]; complete conversion to HCl Pattern 3 at 0.5%RH, reverted completely by 45%RH): 14 %RH
VH-XRPD ([1]; lowering humidity, below 25%RH to 0.5%RH): The material starts to change below 25%RH, with full conversion to HCl Pattern 3 at 0.5%RH.
VH-XRPD ([1]; raising humidity, 13%RH to 45%RH): At 13%RH the material starts to revert back to HCl Pattern 2 with complete conversion by 45%RH.
heating temperature for conversion to a new pattern (VT-XRPD) ([1]; reverted to partially crystalline HCl Pattern 2 upon cooling in air): above 80 °C
VT-XRPD Heating to 100°C, then cool ([1]; scale-up HCl Pattern 2): Conversion to a new pattern at 80 °C (HCl 3), which returns to less crystalline HCl 2 upon cooling.
VT-XRPD Heating to 140°C ([1]; scale-up HCl Pattern 2): Conversion to HCl Pattern 3 at 80 °C that remains unchanged to 120°C, before losing crystallinity at higher temperature
uptake at the end of the analysis (GVS) ([6]; 25°C, equating to a tri-hydrate): 10.6 wt%
GVS: XRPD after the experiment ([6]; at the end of the experiment): no significant changes noted by XRPD
GVS ([6]; below 30%RH): Further reversible weight toss below 30%RH may indicate lower stoichiometry hydrate.
GVS ([6]; between 30-40%RH): Reversible dehydration observed between 30-40%RH.
GVS Reversible uptake ([6]; between 40-90%RH): Reversible uptake of ca. 6 wt% between 40-90%RH.
relative humidity to which the form appeared to be stable (GVS) ([6]; dehydration below 30%, rehydration by 40%): 30 %RH
KF [7]: 15.2 % water,
TGA heat / cool experiments: IC ([7]; Sample heated to 100°C): 1.6 eqsCl
TGA heat / cool experiments: XRPD ([7]; Sample heated to 100°C): Partially crystalline HCl Pattern 2
TGA heat / cool experiments: IC ([7]; Sample heated to 140°C): 1.7 eqs Cl
TGA heat / cool experiments: XRPD ([7]; Sample heated to 140°C): Partially crystalline HCl Pattern 2
TGA heat / cool experiments ([7]; Sample heated to 210°C): Sample heated to 210°C, decomposition observed
Stability at 40°C/75%RH ([7]; XRPD, 3 weeks storage): No significant changes observed by XRPD after 3 weeks storage
IC ([7]; as determined): 1.7 eqs Cl (as determined)
KF ([7]; assuming 2 eqs Cl): corresponding to 4.3 eqs water, assuming 2 eqs Cl
IC ([7]; corrected with 15% w/w water content): 2.0 eqs Cl (corrected with 15% w/w water content)
TGA Weight loss ([7]; first step, by 100°C): 8%
solubility thermodynamic ([7]; pH 1, simulated gastric fluid, SGF (pH1.0)): 2800 µg/mL
XRPD (air dried) ([7]; scale-up HCl Pattern 2): New pattern (HCl Pattern 3)
XRPD (vacuum dried) ([7]; scale-up HCl Pattern 2): Crystalline. HCl Pattern 2; also recorded: Slight differences compared to HCl Pattern 2, possibly due to differences in crystallinity
TGA Weight loss ([7]; second step, to 140°C): 2.3%
solubility thermodynamic ([7]; simulated gastric fluid, 0.1N HCl (pH 0.9)): 3500 µg/mL
solubility thermodynamic ([7]; Water (pH 1.6)): 1600 µg/mL
TGA Weight loss ([7]; third step, to 210°C): 8.7%
